Experimental findings from patent publication US20200375987A1, “METALLO-BETA-LACTAMASE INHIBITORS AND METHODS OF USE THEREOF” (priority 2018, published 2020) are described below.

In brackets after ≈: the same amount, converted by molar mass.

Usually MIC stands for the lowest concentration found to suppress growth. A low value points to a more susceptible organism.

Holding throughout (assay type): cell-based
The subject of experiment [1] is Pseudomonas aeruginosa MB5890 (oprD+, efflux−). The following applies: MB 5890, OprD+. The text has this: (§1) The strain background is Pseudomonas aeruginosa PAO1. A wild-type (MB5919) and an isogenic strain in which multiple efflux pumps have been disrupted genetically were used. The MBL IMP-1, obtained from a clinical isolate was introduced into the strain pair by the following process:
(§2) Plasmid DNA (encoding IMP-1) was extracted from CL 5673 (IMP-1, P. aeruginosa clinical strain) by standard techniques. The plasmid DNA was transformed into parental MB5919 (oprD+, efflux+, inducible AmpC) and MB5890 (oprD+, efflux−, inducible AmpC) isogenic strains by electroporation. These transformed strains were plated onto cation-adjusted Muller-Hinton agar plates containing ceftazidime at 32 μg/mL (MB5919) and 16 μg/mL (MB5890) to select for those cells in which the IMP-1-expressing plasmid was introduced successfully, resulting in resistance to ceftazidime.
(§3) Minimum inhibitory concentrations of sentinel antibiotics were performed to quality control the new strains.

Experiment [2] deals with Pseudomonas aeruginosa MB9798 (MB5919 Trans IMP1 plasmid, efflux+). The following applies: MB5919 Trans IMP1 plasmid (MB 9798), OprD+.
Description: as §1, §2, §3

Experiment [3] has as its system Pseudomonas aeruginosa MB9799 (MB5890 Trans IMP1 plasmid, efflux−). The following applies: MB 5890 Trans IMP1 plasmid (MB 9799), OprD+.
Description: as §1, §2, §3

Experiment [4] relates to Pseudomonas aeruginosa PAO1 MB5919 (oprD+, efflux+).
Description: as §1, §2, §3

Experiment [5] has as its system Pseudomonas aeruginosa MB9861 (MB5919 Trans pFlp-Vim1 plasmid, efflux+). The following applies: MB5919 Trans pFlp-Vim1 plasmid (MB 9861), OprD+.
Experiment [6] relates to Pseudomonas aeruginosa MB9862 (MB5890 trans pFlp-Vim1 plasmid, efflux−). The following applies: MB 5890 trans pFlp-Vim1 plasmid (MB 9862), OprD+.
Experiment [7] relates to Pseudomonas aeruginosa MB5919 Trans pFlp-Vim2 plasmid (efflux+). As to conditions: MB 5919 Trans pFlp-Vim2 plasmid, OprD+.
Experiment [8] concerns Pseudomonas aeruginosa MB5890 Trans pFlp-Vim2 plasmid (efflux−). The following applies: MB 5890 Trans pFlp-Vim2 plasmid, OprD+.

`CC[C@H]1OC(=O)[C@H](C)[C@@H](O[C@H]2C[C@@](C)(OC)[C@@H](O)[C@H](C)O2)[C@H](C)[C@@H](O[C@@H]2O[C@H](C)C[C@H](N(C)C)[C@H]2O)[C@](C)(O)C[C@@H](C)CN(C)[C@H](C)[C@@H](O)[C@]1(C)O` [Azithromycin]: the MIC in experiment [1] is 1 µg/mL (≈ 1.34 µM); in experiment [2], 2 µg/mL (≈ 2.67 µM); in experiment [3] it was 2 µg/mL (≈ 2.67 µM); in experiment [4], 16 µg/mL (≈ 21.4 µM); in experiment [5], 32 µg/mL (≈ 42.7 µM); in experiment [6] it was 1 µg/mL (≈ 1.34 µM). Further, the MIC in experiment [7] was 32 µg/mL (≈ 42.7 µM); in experiment [8], 1 µg/mL (≈ 1.34 µM).
As for `CC(C)(O/N=C(\C(=O)N[C@@H]1C(=O)N2C(C(=O)[O-])=C(C[n+]3ccccc3)CS[C@H]12)c1csc(N)n1)C(=O)O` [CAZ, ceftazidime], the MIC in experiment [1] was 0.5 µg/mL (≈ 0.915 µM); in experiment [2], 256 µg/mL (≈ 468 µM); in experiment [3], 256 µg/mL (≈ 468 µM); in experiment [4], 1 µg/mL (≈ 1.83 µM); in experiment [5] it was greater than 256 µg/mL; in experiment [6], greater than 256 µg/mL. Further, the MIC in experiment [7] is 128 µg/mL (≈ 234 µM); in experiment [8], 64 µg/mL (≈ 117 µM).
In the case of `O=C(N[C@H](CO)[C@H](O)c1ccc([N+](=O)[O-])cc1)C(Cl)Cl` [Chloramphenicol], the MIC was 1 µg/mL (≈ 3.09 µM) in experiment [1]; greater than 64 µg/mL in experiment [2]; 1 µg/mL (≈ 3.09 µM) in experiment [3]; greater than 64 µg/mL in experiment [4]; greater than 64 µg/mL in experiment [5]; 2 µg/mL (≈ 6.19 µM) in experiment [6]. The MIC in experiment [7] is greater than 64 µg/mL; in experiment [8], 1 µg/mL (≈ 3.09 µM).
Consider `C[C@@H](O)[C@H]1C(=O)N2C(C(=O)O)=C(SCCN=CN)C[C@H]12` [Imipenem], for which the MIC in experiment [1] was 2 µg/mL (≈ 6.68 µM); in experiment [2] it was 64 µg/mL (≈ 214 µM); in experiment [3], 32 µg/mL (≈ 107 µM); in experiment [4] it was 4 µg/mL (≈ 13.4 µM); in experiment [5], greater than 64 µg/mL; in experiment [6], 64 µg/mL (≈ 214 µM). For the same molecule, the values for the MIC in experiment [7] and in experiment [8] were greater than 64 µg/mL and 32 µg/mL (≈ 107 µM), respectively.
In the case of `C[C@@H](O)[C@H]1C(=O)N2C(C(=O)O)=C(S[C@@H]3CN[C@H](C(=O)N(C)C)C3)[C@H](C)[C@H]12` [Meropenem], the MIC was 0.5 µg/mL (≈ 1.3 µM) in experiment [1]; greater than 64 µg/mL in experiment [2]; 64 µg/mL (≈ 167 µM) in experiment [3]; 2 µg/mL (≈ 5.22 µM) in experiment [4]; greater than 64 µg/mL in experiment [5]; 64 µg/mL (≈ 167 µM) in experiment [6]. Further, the MIC in experiment [7] is greater than 64 µg/mL; in experiment [8], 32 µg/mL (≈ 83.4 µM).
`CCN1CCN(C(=O)N[C@@H](C(=O)N[C@@H]2C(=O)N3[C@@H]2SC(C)(C)[C@@H]3C(=O)O)c2ccccc2)C(=O)C1=O` [Pipercillin]: the MIC in experiment [1] was 1 µg/mL (≈ 1.93 µM); in experiment [2], 4 µg/mL (≈ 7.73 µM); in experiment [3], 4 µg/mL (≈ 7.73 µM); in experiment [4], 2 µg/mL (≈ 3.86 µM); in experiment [5], greater than 256 µg/mL; in experiment [6], 128 µg/mL (≈ 247 µM). Moreover, the MIC in experiment [7] is greater than 256 µg/mL; in experiment [8], 128 µg/mL (≈ 247 µM).
